Experimental findings from US10858362B2, “Imidazopyrazinones as PDE1 inhibitors” (H. Lundbeck A/S, priority 2015, dated 2020) are described below.

What all share (type): biochemical
The target in one assay is PDE9 (Homo sapiens (Human), UniProt O76083). The experiment in a line: PDE9 inhibition assay. As to the method: A PDE9 assay may for example, be performed as follows: The assay is performed in 60 μL samples containing a fixed amount of the relevant PDE enzyme (sufficient to convert 20-25% of the cyclic nucleotide substrate), a buffer (50 mM HEPES7.6; 10 mM MgCl2; 0.02% Tween20), 0.1 mg/ml BSA, 225 pCi of ^3H-labelled cyclic nucleotide substrate, tritium labeled cAMP to a final concentration of 5 nM and varying amounts of inhibitors. Reactions are initiated by addition of the cyclic nucleotide substrate, and reactions are allowed to proceed for one hr at room temperature before being terminated through mixing with 15 μL 8 mg/mL yttrium silicate SPA beads (Amersham). The beads are allowed to settle for one hr in the dark before the plates are counted in a Wallac 1450 Microbeta counter.
In the context of the present invention the assay was performed in 60 μL assay buffer (50 mM HEPES pH 7.6; 10 mM MgCl2; 0.02% Tween20) containing enough PDE9 to convert 20-25% of 10 nM ^3H-cAMP and varying amounts of inhibitors. Following a 1 hr incubation the reactions were terminated by addition of 15 μL 8 mg/mL yttrium silicate SPA beads (Amersham). The beads were allowed to settle for one hr in the dark before the plates were counted in a Wallac 1450 Microbeta counter.

In a further assay the target is PDE1A (Homo sapiens (Human), UniProt P54750). The experiment in a line: PDE1 inhibition assay, PDE1A. To be noted: for IC50: 15 nM tritium labelled cAMP; for inhibition at 1 µM: read-out: PDE1A, % inhibition (at 1 μM); for percent inhibition of PDE1A at 2 µM: % sign not given. As to the method: Reactions were initiated by addition of the cyclic nucleotide substrate, and reactions were allowed to proceed for 1 h at room temperature before being terminated through mixing with 20 μL (0.2 mg) yttrium silicate SPA beads (PerkinElmer).

The next assay concerns the target PDE1B (Homo sapiens (Human), UniProt Q01064). The experiment in a line: PDE1 inhibition assay, PDE1B. To be noted: for IC50: 15 nM tritium labelled cAMP; for inhibition at 1 µM: read-out: PDE1B, % inhibition (at 1 μM). On the procedure:
(§1) Reactions were initiated by addition of the cyclic nucleotide substrate, and reactions were allowed to proceed for 1 h at room temperature before being terminated through mixing with 20 μL (0.2 mg) yttrium silicate SPA beads (PerkinElmer). The beads were allowed to settle for 1 h in the dark before the plates were counted in a Wallac 1450 Microbeta counter.

The target of the next assay is PDE1C (Homo sapiens (Human), UniProt Q14123). The experiment in a line: PDE1 inhibition assay, PDE1C. To be noted: for IC50: 15 nM tritium labelled cAMP; for inhibition at 1 µM: read-out: PDE1C, % inhibition (at 1 μM). As to the method: as §1
Chain of PDE1C (Q14123 whole entry): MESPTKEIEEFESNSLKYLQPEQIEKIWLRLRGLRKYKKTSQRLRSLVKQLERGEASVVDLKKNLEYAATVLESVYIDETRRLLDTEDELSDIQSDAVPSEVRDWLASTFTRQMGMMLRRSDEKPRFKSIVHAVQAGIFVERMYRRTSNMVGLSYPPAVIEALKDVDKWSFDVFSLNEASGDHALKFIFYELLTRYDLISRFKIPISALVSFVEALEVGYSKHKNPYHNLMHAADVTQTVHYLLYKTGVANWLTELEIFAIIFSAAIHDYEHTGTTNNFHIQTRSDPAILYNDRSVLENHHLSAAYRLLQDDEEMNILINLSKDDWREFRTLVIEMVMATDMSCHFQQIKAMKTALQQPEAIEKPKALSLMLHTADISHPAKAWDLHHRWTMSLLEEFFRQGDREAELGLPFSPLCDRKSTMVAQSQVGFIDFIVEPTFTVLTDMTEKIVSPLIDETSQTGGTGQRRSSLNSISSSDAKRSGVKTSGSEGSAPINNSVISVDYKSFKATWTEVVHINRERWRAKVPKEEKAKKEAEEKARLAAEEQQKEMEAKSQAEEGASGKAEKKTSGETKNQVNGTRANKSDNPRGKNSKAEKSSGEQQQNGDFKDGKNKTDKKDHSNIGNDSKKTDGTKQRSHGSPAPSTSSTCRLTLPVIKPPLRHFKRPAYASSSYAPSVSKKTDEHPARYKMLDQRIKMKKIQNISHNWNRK

Chain of PDE1A (P54750 whole entry): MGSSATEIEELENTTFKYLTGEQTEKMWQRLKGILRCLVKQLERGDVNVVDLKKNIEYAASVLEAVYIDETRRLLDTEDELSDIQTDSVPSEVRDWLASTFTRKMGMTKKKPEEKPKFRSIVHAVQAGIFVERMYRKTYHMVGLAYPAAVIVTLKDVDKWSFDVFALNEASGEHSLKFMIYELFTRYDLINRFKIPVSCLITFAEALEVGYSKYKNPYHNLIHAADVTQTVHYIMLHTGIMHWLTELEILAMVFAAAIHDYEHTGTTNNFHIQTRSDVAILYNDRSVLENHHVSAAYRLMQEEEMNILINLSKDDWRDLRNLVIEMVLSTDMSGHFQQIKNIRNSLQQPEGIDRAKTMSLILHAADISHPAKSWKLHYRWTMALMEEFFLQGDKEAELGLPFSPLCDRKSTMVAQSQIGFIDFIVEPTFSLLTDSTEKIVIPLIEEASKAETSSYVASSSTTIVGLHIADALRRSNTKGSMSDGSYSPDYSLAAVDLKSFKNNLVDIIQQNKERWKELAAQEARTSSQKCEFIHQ
Chain of PDE9 (O76083 whole entry): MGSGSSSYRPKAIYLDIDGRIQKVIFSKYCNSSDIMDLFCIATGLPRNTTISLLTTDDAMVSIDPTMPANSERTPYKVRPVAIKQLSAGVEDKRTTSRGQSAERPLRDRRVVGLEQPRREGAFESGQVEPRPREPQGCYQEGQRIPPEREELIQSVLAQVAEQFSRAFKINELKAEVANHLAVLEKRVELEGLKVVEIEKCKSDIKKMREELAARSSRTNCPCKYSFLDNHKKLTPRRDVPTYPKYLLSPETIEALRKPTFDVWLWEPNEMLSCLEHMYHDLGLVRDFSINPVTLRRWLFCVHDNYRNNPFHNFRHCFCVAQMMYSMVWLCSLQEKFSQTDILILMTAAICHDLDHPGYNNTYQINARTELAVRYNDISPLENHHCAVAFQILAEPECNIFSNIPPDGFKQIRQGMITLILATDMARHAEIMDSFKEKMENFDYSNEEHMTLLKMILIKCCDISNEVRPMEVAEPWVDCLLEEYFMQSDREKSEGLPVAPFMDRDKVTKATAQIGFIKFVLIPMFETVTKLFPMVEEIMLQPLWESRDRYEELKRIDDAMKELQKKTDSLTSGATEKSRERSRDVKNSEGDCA
Chain of PDE1B (Q01064 whole entry): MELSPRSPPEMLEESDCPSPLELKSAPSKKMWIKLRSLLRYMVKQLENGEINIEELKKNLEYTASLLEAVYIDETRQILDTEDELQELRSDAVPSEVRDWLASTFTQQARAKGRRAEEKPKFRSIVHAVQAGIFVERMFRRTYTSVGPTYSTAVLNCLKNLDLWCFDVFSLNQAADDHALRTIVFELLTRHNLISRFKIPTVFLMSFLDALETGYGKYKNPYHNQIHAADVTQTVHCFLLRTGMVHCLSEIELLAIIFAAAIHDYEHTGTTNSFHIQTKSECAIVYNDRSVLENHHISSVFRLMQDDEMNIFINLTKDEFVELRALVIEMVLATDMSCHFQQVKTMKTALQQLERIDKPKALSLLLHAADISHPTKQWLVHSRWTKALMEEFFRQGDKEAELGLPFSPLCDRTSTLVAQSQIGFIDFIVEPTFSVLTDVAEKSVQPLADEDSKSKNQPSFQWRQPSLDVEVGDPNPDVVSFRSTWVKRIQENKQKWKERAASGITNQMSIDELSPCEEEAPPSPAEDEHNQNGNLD

Usually inhibition stands for the relative decrease from the control value, in per cent. By IC50 is commonly meant the point on the concentration scale where inhibition reaches its midpoint. A higher IC50 goes with lower potency. Consider `Cc1ccccc1Cn1c(C)cn2c(C3CCOCC3)ncc2c1=O` [Example 21, 6-Methyl-7-(2-methylbenzyl)-3-(tetrahydro-2H-pyran-4-yl)imidazo[1,5-a]pyrazin-8(7H)-one], for which the inhibition at 10 µM on PDE9 was -14%. Further, the 50% inhibitory concentration (IC50) came to 242 nM against PDE1A, 195 nM against PDE1B and 30 nM at PDE1C.
Taken in the same sequence, the figures for `Cc1ccc(Cn2c(C)cn3c(C4CCOCC4)ncc3c2=O)cc1` [Example 22, 6-Methyl-7-(4-methylbenzyl)-3-(tetrahydro-2H-pyran-4-yl)imidazo[1,5-a]pyrazin-8(7H)-one] were 50%, 75 nM, 28 nM and 67 nM.
Take `COc1ccc(Cn2c(C)cn3c(C4CCOCC4)ncc3c2=O)cc1` [Example 23, 7-(4-Methoxybenzyl)-6-methyl-3-(tetrahydro-2H-pyran-4-yl)imidazo[1,5-a]pyrazin-8(7H)-one]: on PDE9, the inhibition at 10 µM came to 16%. Moreover, the 50% inhibitory concentration (IC50) turned out to be 14 nM on PDE1A, 12 nM on PDE1B and 19 nM on PDE1C.
Taken in the same sequence, the figures for `Cc1cn2c(C3CCOCC3)ncc2c(=O)n1Cc1ccc(F)cc1` [Example 24, 7-(4-Fluorobenzyl)-6-methyl-3-(tetrahydro-2H-pyran-4-yl)imidazo[1,5-a]pyrazin-8(7H)-one] were -1%, 38 nM, 43 nM and 17 nM.
Taken in the same sequence, the figures for `Cc1cccc(Cn2c(C)cn3c(C4CCOCC4)ncc3c2=O)c1` [Example 25, 6-Methyl-7-(3-methylbenzyl)-3-(tetrahydro-2H-pyran-4-yl)imidazo[1,5-a]pyrazin-8(7H)-one] were -42%, 63 nM, 57 nM and 9 nM.
For the compound `Cc1cn2c(C3(C)CCOCC3)ncc2c(=O)n1Cc1cccc(F)c1` [Example 26, 7-(3-fluorobenzyl)-6-methyl-3-(4-methyltetrahydro-2H-pyran-4-yl)imidazo[1,5-a]pyrazin-8(7H)-one], the inhibition at 10 µM at PDE9 was -2%. Moreover, the IC50 against PDE1A amounted to 234 nM; on PDE1B, 218 nM; on PDE1C it was 47 nM.
The corresponding values for `Cc1cn2c(C3(C#N)CCOCC3)ncc2c(=O)n1Cc1cccc(F)c1` [Example 27, 4-(7-(3-fluorobenzyl)-6-methyl-8-oxo-7,8-dihydroimidazo[1,5-a]pyrazin-3-yl)tetrahydro-2H-pyran-4-carbonitrile] are 5%, 603 nM, 699 nM and 103 nM.
Taken in the same sequence, the figures for `COC1(c2ncc3c(=O)n(Cc4cccc(F)c4)c(C)cn23)CCOCC1` [Example 28, 7-(3-fluorobenzyl)-3-(4-methoxytetrahydro-2H-pyran-4-yl)-6-methylimidazo[1,5-a]pyrazin-8(7H)-one] were 13%, 663 nM, 737 nM and 72 nM.
Taken in the same sequence, the figures for `Cc1cn2c(C3(F)CCOCC3)ncc2c(=O)n1Cc1cccc(F)c1` [Example 29, 7-(3-fluorobenzyl)-3-(4-fluorotetrahydro-2H-pyran-4-yl)-6-methylimidazo[1,5-a]pyrazin-8(7H)-one] were 16%, 493 nM, 249 nM and 50 nM.
Consider `Cc1cn2c(C3(C)CC3)ncc2c(=O)n1Cc1cccc(F)c1` [Example 33, 7-(3-fluorobenzyl)-6-methyl-3-(1-methylcyclopropyl)imidazo[1,5-a]pyrazin-8(7H)-one], for which the inhibition at 10 µM against PDE9 is -2%. In addition, the IC50 is 94 nM against PDE1A, 52 nM on PDE1B and 7 nM at PDE1C.
Turning to `Cc1cn2c(C3CC3(F)F)ncc2c(=O)n1Cc1cccc(F)c1` (stereo not shown) [Example 34, 3-(2,2-difluorocyclopropyl)-7-(3-fluorobenzyl)-6-methylimidazo[1,5-a]pyrazin-8(7H)-one], the inhibition at 10 µM against PDE9 was determined as 0%. Further, the concentration for half-maximal inhibition (IC50) at PDE1A was determined as 331 nM; against PDE1B, 359 nM; at PDE1C it was 93 nM.
Taken in the same sequence, the figures for `Cc1cn2c(C3CCOCC3)ncc2c(=O)n1Cc1ccc(OC2CC2)cc1` [Example 39, 7-(4-cyclopropoxybenzyl)-6-methyl-3-(tetrahydro-2H-pyran-4-yl)imidazo[1,5-a]pyrazin-8(7H)-one] were 23%, 413 nM, 118 nM and 364 nM.
With `Cc1cn2c(C3CCOCC3)ncc2c(=O)n1Cc1ccc(OC(F)F)cc1` [Example 40, 7-(4-(difluoromethoxy)benzyl)-6-methyl-3-(tetrahydro-2H-pyran-4-yl)imidazo[1,5-a]pyrazin-8(7H)-one], the inhibition at 10 µM against PDE9 was -25%. Also, the IC50 against PDE1A was 73 nM; against PDE1B it was 27 nM; against PDE1C, 52 nM.
Taken in the same sequence, the figures for `Cc1cn2c(C3CCOCC3)ncc2c(=O)n1Cc1ccc(OC(F)(F)F)cc1` [Example 41, 6-methyl-3-(tetrahydro-2H-pyran-4-yl)-7-(4-(trifluoromethoxy)benzyl)imidazo[1,5-a]pyrazin-8(7H)-one] were -22%, 27 nM, 18 nM and 52 nM.
On to `Cc1cn2c(C3CCOCC3)ncc2c(=O)n1Cc1ccc(OCC2CC2)cc1` [Example 42, 7-(4-(cyclopropylmethoxy)benzyl)-6-methyl-3-(tetrahydro-2H-pyran-4-yl)imidazo[1,5-a]pyrazin-8(7H)-one], for which, at PDE9, the inhibition at 10 µM stood at 15%. For the same compound, the inhibition at 1 µM worked out at 50% on PDE1A and 55% on PDE1C. This compound yielded a 50% inhibitory concentration (IC50) against PDE1B of 155 nM.
`CCc1cn2c(C3CCOCC3)ncc2c(=O)n1Cc1ccccc1` [Example 43, 7-benzyl-6-ethyl-3-(tetrahydro-2H-pyran-4-yl)imidazo[1,5-a]pyrazin-8(7H)-one]: the inhibition at 10 µM against PDE9 was 6%. The half-maximal inhibitory concentration (IC50) against PDE1A worked out at 105 nM; on PDE1B, 32 nM; against PDE1C, 9 nM.
The corresponding values for `CCc1cn2c(C3CCOCC3)ncc2c(=O)n1Cc1ccc(OC)cc1` [Example 44, 6-ethyl-7-(4-methoxybenzyl)-3-(tetrahydro-2H-pyran-4-yl)imidazo[1,5-a]pyrazin-8(7H)-one] are 18%, 40 nM, 5 nM and 16 nM.
Consider `Cc1cn2c(C3CCOCC3)ncc2c(=O)n1Cc1cccc(C#N)c1` [Example 45, 3-((6-methyl-8-oxo-3-(tetrahydro-2H-pyran-4-yl)imidazo[1,5-a]pyrazin-7(8H)-yl)methyl)benzonitrile], for which the inhibition at 10 µM against PDE9 is 6%. Moreover, the “percent inhibition of PDE1A at 2 µM” value on PDE1A was found to be 64. The inhibition at 1 µM at PDE1B was 54%. The same compound came in with a half-maximal inhibitory concentration (IC50) at PDE1C of 149 nM.
With `Cc1cn2c(C3CCOCC3)ncc2c(=O)n1Cc1ccc(C#N)cc1` [Example 46, 4-((6-methyl-8-oxo-3-(tetrahydro-2H-pyran-4-yl)imidazo[1,5-a]pyrazin-7(8H)-yl)methyl)benzonitrile], the inhibition at 10 µM at PDE9 was found to be 14%. In addition, inhibition at PDE1A was half-maximal at 809 nM (IC50). Besides, the inhibition at 1 µM came out at 58% at PDE1B and 9% at PDE1C.
Regarding `CC(=O)Nc1ccc(Cn2c(C)cn3c(C4CCOCC4)ncc3c2=O)cc1` [Example 47, N-(4-((6-methyl-8-oxo-3-(tetrahydro-2H-pyran-4-yl)imidazo[1,5-a]pyrazin-7(8H)-yl)methyl)phenyl)acetamide], the inhibition at 10 µM against PDE9 was 10%. Further, the inhibition at 1 µM on PDE1A is 0%; at PDE1C it was 10%. The IC50 at PDE1B stood at 388 nM.
Consider `CCc1ccccc1Cn1c(C)cn2c(C3CCOCC3)ncc2c1=O` [Example 49, 7-(2-ethylbenzyl)-6-methyl-3-(tetrahydro-2H-pyran-4-yl)imidazo[1,5-a]pyrazin-8(7H)-one], for which the inhibition at 10 µM at PDE9 stood at 1%. For the same compound, the “percent inhibition of PDE1A at 2 µM” value on PDE1A is 44. The inhibition at 1 µM at PDE1B is 60%. Further, it took 173 nM to reach half-maximal inhibition at PDE1C (IC50).
Take `Cc1cn2c(C3CCOCC3)ncc2c(=O)n1Cc1ccc2c(c1)OCO2` [Example 50, 7-(benzo[d][1,3]dioxol-5-ylmethyl)-6-methyl-3-(tetrahydro-2H-pyran-4-yl)imidazo[1,5-a]pyrazin-8(7H)-one]: the inhibition at 10 µM against PDE9 amounted to 12%. The 50% inhibitory concentration (IC50) was 50 nM against PDE1A, 16 nM on PDE1B and 38 nM against PDE1C.
